For test [1], the system named is Smc3-GFP (cohesin holocomplex) in yeast protein extract. The test can be described thus: Microscale thermophoresis (MST) binding in yeast cell extract. To be noted: 10 μM CIP3-TAT (Fig S3; method b75: 5 μM), extract of yAM-945 strain, MST binding mode, no binding constants. On the procedure:
We validated the in vitro binding of CIP3 to Smc3 by exploring the formation of the complex in a yeast cell extract in which Smc3 was fused to GFP. Protein extract from the yAM-945 strain containing Smc3-GFP was supplemented with 10 μM CIP3-TAT and analyzed by microscale thermophoresis (MST) in binding mode. In this assay, the migration of a fluorescent protein in a microscale temperature gradient is monitored. Changes in the physical-chemical properties of the protein, induced by interaction with another protein or a small molecule, will change the migration properties of the protein. While biochemical constants of the binding cannot be determined under these conditions, as the concentration of Smc3-GFP in the extract is undetermined.
Yeast strain yAM-945 cells containing Smc3-GFP were grown in SD-URA galactose to mid-log phase. Cells were collected by centrifugation and washed with water. The cell pellet was resuspended in 350 μl of MST Buffer (NanoTemper) supplemented with 0.05% Tween-20 (Sigma). Glass beads were added, and cells were lyzed by 4 cycles of 1 minute in a bullet blender (next advance). The protein extract was clarified by centrifugation at 1000 g for 5 minutes. […] The formation of the CIP3-TAT and cohesin complex was analyzed by Monolith NT.115 (NanoTemper) in the binding mode that detects the formation of complexes without calculating the binding constants.

The test system of test [2] is yME-961 strain yeast cells. The test can be described thus: Cell cycle stage by flow cytometry. The class given is cell-based. The settings on record: peptide 1 h at G1, release to G2/M arrest. As for the experimental part: The potential of CIP3-TAT to inhibit cohesion activity was explored by analyzing sister chromatid cohesion in cells arrested at the G2/M. Inserted in the LYS4 locus were LacO arrays, which bind LacI-GFP. In unperturbed cells arrested at the G2/M phase of the cell cycle, cohesin tethers the sister chromatids visualized under the microscope as a single GFP dot. When cohesin is inactivated, the sister chromatids fall apart and are seen as two distinctive GFP dots. yME-961 strain cells were grown to mid-log phase and arrested at the G1 phase of the cell cycle. Cells were divided into three samples, of which two were supplemented with TAT peptide alone or CIP3-TAT for 1 h. Then, the cells were released into the cell cycle until their rearrest at the G2/M phase. Cells were processed for cohesion assay (Figure 4A).
Supplementary Figure S3. Binding of CIP3-TAT to cohesin by microscale thermophoresis, Related to Figure 3. 10 µM CIP3-TAT was added to protein extracts from strain yAM-945 (Smc3-GFP). The formation of the CIP3-TAT and cohesin complex was analyzed by MST in binding mode. A. MST trace. […]
3. […] The purified proteins were analyzed on gel, followed by coomassie staining. […]
Supplementary Figure S5. […] The entry of the peptide into the cells was analyzed by epifluorescence microscopy.
Supplementary Figure S6. […] The cell cycle stage of the cells, described in Fig. 4B, was determined by flow cytometry. […]
On the technique in general: In flow cytometry, cells or beads pass a laser one at a time.

For test [3], the system named is yME-961 strain yeast cells. The test can be described thus: Sister chromatid cohesion GFP dot assay. The class given is cell-based. To be noted: peptide 1 h at G1, release, G2/M arrest. On the procedure: Figure 4 CIP3 inhibits sister chromatid cohesion and chromosome condensation (A) Flowchart outlining the sister chromatid cohesion assay. (B) yME-961 strain cells were grown and treated with peptides, as shown in A. Premature sister chromatid separation was determined by counting the number of cells showing two GFP dots. At least 300 cells were counted in 3 independent experiments. ∗∗p < 0.001. (C) Cells were grown to mid-log phase. The culture was divided into two flasks, one being treated with CIP3-TAT. Condensation was determined in cells at the G2/M phase by 2-photon microscopy. ∗∗p < 0.001. (D) yKS-008 strain (Smc3-V5) cells were grown and treated with CIP3-TAT peptide, as shown in A. Cells were processed for ChIP with antibodies against V5.
The potential of CIP3-TAT to inhibit cohesion activity was explored by analyzing sister chromatid cohesion in cells arrested at the G2/M. Inserted in the LYS4 locus were LacO arrays, which bind LacI-GFP. In unperturbed cells arrested at the G2/M phase of the cell cycle, cohesin tethers the sister chromatids visualized under the microscope as a single GFP dot. When cohesin is inactivated, the sister chromatids fall apart and are seen as two distinctive GFP dots. yME-961 strain cells were grown to mid-log phase and arrested at the G1 phase of the cell cycle. […]

The results in this text go back to PMC10470313, “Developing a peptide to disrupt cohesin head domain interactions” (iScience, 2023).

Where no end group is shown, it is not given here.

In the case of KRFKDMEYLSGGEKTGGYGRKKRRQRRR [CIP3-TAT], the “complex formation with Smc3-GFP/cohesin” value in test [1] is “supported the formation of the Smc3/CIP3 complex”. Moreover, in test [2], the “cell cycle delay” value is on record as “No cell cycle delays”. Also, in test [3], the “sister chromatid cohesion level” value is “precocious separation of the sister chromatids”. The “cells with precocious separation of sister chromatids (two GFP dots)” value in test [3] (LacO at LYS4, at least 300 cells in 3 independent experiments) was “approximately 80%”.
